Measured values from PubChem BioAssay (NCI).
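Here, GI50 denotes the concentration required for 50% inhibition of growth. TGI: concentration producing complete growth inhibition.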

What was measured:
Assay in all cases: inhibition of tumour cell growth, NCI panel, 384-well format
786-0 renal = test system: 786-0 renal
A498 renal = test system: A498 renal
A549 NSCLC = test system: A549 NSCLC
ACHN renal = test system: ACHN renal
BT-549 breast = test system: BT-549 breast
CAKI-1 renal = test system: CAKI-1 renal
CCRF-CEM leukemia = test system: CCRF-CEM leukemia
COLO 205 colon = test system: COLO 205 colon
DU-145 prostate = test system: DU-145 prostate
EKVX NSCLC = test system: EKVX NSCLC
HCT-15 colon = test system: HCT-15 colon
HL-60(TB) leukemia = test system: HL-60(TB) leukemia
HOP-62 NSCLC = test system: HOP-62 NSCLC
HOP-92 NSCLC = test system: HOP-92 NSCLC
HS 578T breast = test system: HS 578T breast
HT29 colon = test system: HT29 colon
IGROV1 ovarian = test system: IGROV1 ovarian
K-562 leukemia = test system: K-562 leukemia
KM12 colon = test system: KM12 colon
LOX IMVI melanoma = test system: LOX IMVI melanoma
M14 melanoma = test system: M14 melanoma
MALME-3M melanoma = test system: MALME-3M melanoma
MDA-MB-231 breast = test system: MDA-MB-231 breast
MDA-MB-435 melanoma = test system: MDA-MB-435 melanoma
MOLT-4 leukemia = test system: MOLT-4 leukemia
NCI-H226 lung = test system: NCI-H226 lung
NCI-H23 lung = test system: NCI-H23 lung
NCI-H322M lung = test system: NCI-H322M lung
NCI-H460 NSCLC = test system: NCI-H460 NSCLC
NCI-H522 lung = test system: NCI-H522 lung
NCI/ADR-RES ovarian = test system: NCI/ADR-RES ovarian
OVCAR-3 ovarian = test system: OVCAR-3 ovarian
OVCAR-4 ovarian = test system: OVCAR-4 ovarian
OVCAR-5 ovarian = test system: OVCAR-5 ovarian
OVCAR-8 ovarian = test system: OVCAR-8 ovarian
PC-3 prostate = test system: PC-3 prostate
RPMI-8226 leukemia = test system: RPMI-8226 leukemia
RXF 393 renal = test system: RXF 393 renal
SF-268 CNS = test system: SF-268 CNS
SF-295 CNS = test system: SF-295 CNS
SF-539 CNS = test system: SF-539 CNS
SK-MEL-28 melanoma = test system: SK-MEL-28 melanoma
SK-OV-3 ovarian = test system: SK-OV-3 ovarian
SN12C renal = test system: SN12C renal
SNB-19 CNS = test system: SNB-19 CNS
SNB-75 CNS = test system: SNB-75 CNS
SR leukemia = test system: SR leukemia
SW-620 colon = test system: SW-620 colon
T-47D breast = test system: T-47D breast
TK-10 renal = test system: TK-10 renal
UACC-257 melanoma = test system: UACC-257 melanoma
UACC-62 melanoma = test system: UACC-62 melanoma
UO-31 renal = test system: UO-31 renal

Nc1ncnc2c1ccn2[C@@H]1O[C@H]([C@H](O)c2ccc(Cl)c(F)c2)[C@@H](O)[C@H]1O
GI50 ([…]-0 renal): 72.9 µM | TGI (786-0 renal): > 100 µM | GI50 (A498 renal): 85.1 µM | TGI (A498 renal): > 100 µM | GI50 (A549 NSCLC): > 100 µM | TGI (A549 NSCLC): > 100 µM | GI50 (ACHN renal): > 100 µM | TGI (ACHN renal): > 100 µM | GI50 (BT-549 breast): > 100 µM | TGI (BT-549 breast): > 100 µM | GI50 (CAKI-1 renal): > 100 µM | TGI (CAKI-1 renal): > 100 µM | GI50 (CCRF-CEM leukemia): 33.9 µM | TGI (CCRF-CEM leukemia): > 100 µM | GI50 (COLO 205 colon): > 100 µM | TGI (COLO 205 colon): > 100 µM | GI50 (DU-145 prostate): > 100 µM | TGI (DU-145 prostate): > 100 µM | GI50 (EKVX NSCLC): 83.9 µM | TGI (EKVX NSCLC): > 100 µM | GI50 (HCT-15 colon): > 100 µM | TGI (HCT-15 colon): > 100 µM | GI50 (HL-60(TB) leukemia): 77.1 µM | TGI (HL-60(TB) leukemia): > 100 µM | GI50 (HOP-62 NSCLC): > 100 µM | TGI (HOP-62 NSCLC): > 100 µM | GI50 (HOP-92 NSCLC): > 100 µM | TGI (HOP-92 NSCLC): > 100 µM | GI50 (HS 578T breast): > 100 µM | TGI (HS 578T breast): > 100 µM | GI50 (HT29 colon): 37.4 µM | TGI (HT29 colon): > 100 µM | GI50 (IGROV1 ovarian): 28.7 µM | TGI (IGROV1 ovarian): > 100 µM | GI50 (K-562 leukemia): 32.7 µM | TGI (K-562 leukemia): > 100 µM | GI50 (KM12 colon): < 10 nM | TGI (KM12 colon): > 100 µM | GI50 (LOX IMVI melanoma): > 100 µM | TGI (LOX IMVI melanoma): > 100 µM | GI50 (M14 melanoma): > 100 µM | TGI (M14 melanoma): > 100 µM | GI50 (MALME-3M melanoma): 40.9 µM | TGI (MALME-3M melanoma): > 100 µM | GI50 (MDA-MB-231 breast): > 100 µM | TGI (MDA-MB-231 breast): > 100 µM | GI50 (MDA-MB-435 melanoma): > 100 µM | TGI (MDA-MB-435 melanoma): > 100 µM | GI50 (MOLT-4 leukemia): < 10 nM | GI50 (NCI-H226 lung): > 100 µM | TGI (NCI-H226 lung): > 100 µM | GI50 (NCI-H23 lung): 52.9 µM | TGI (NCI-H23 lung): > 100 µM | GI50 (NCI-H322M lung): > 100 µM | TGI (NCI-H322M lung): > 100 µM | GI50 (NCI-H460 NSCLC): < 10 nM | TGI (NCI-H460 NSCLC): > 100 µM | GI50 (NCI-H522 lung): > 100 µM | TGI (NCI-H522 lung): > 100 µM | GI50 (NCI/ADR-RES ovarian): > 100 µM | TGI (NCI/ADR-RES ovarian): > 100 µM | GI50 (OVCAR-3 ovarian): > 100 µM | TGI (OVCAR-3 ovarian): > 100 µM | GI50 (OVCAR-4 ovarian): < 10 nM | TGI (OVCAR-4 ovarian): > 100 µM | GI50 (OVCAR-5 ovarian): > 100 µM | TGI (OVCAR-5 ovarian): > 100 µM | GI50 (OVCAR-8 ovarian): > 100 µM | TGI (OVCAR-8 ovarian): > 100 µM | GI50 (PC-3 prostate): 97.7 µM | TGI (PC-3 prostate): > 100 µM | GI50 (RPMI-8226 leukemia): 12.6 µM | TGI (RPMI-8226 leukemia): > 100 µM | GI50 (RXF 393 renal): > 100 µM | TGI (RXF 393 renal): > 100 µM | GI50 (SF-268 CNS): > 100 µM | TGI (SF-268 CNS): > 100 µM | GI50 (SF-295 CNS): > 100 µM | TGI (SF-295 CNS): > 100 µM | GI50 (SF-539 CNS): > 100 µM | TGI (SF-539 CNS): > 100 µM | GI50 (SK-MEL-28 melanoma): > 100 µM | TGI (SK-MEL-28 melanoma): > 100 µM | GI50 (SK-OV-3 ovarian): 50.3 µM | TGI (SK-OV-3 ovarian): > 100 µM | GI50 (SN12C renal): 41.6 µM | TGI (SN12C renal): > 100 µM | GI50 (SNB-19 CNS): > 100 µM | TGI (SNB-19 CNS): > 100 µM | GI50 (SNB-75 CNS): > 100 µM | TGI (SNB-75 CNS): > 100 µM | GI50 (SR leukemia): < 10 nM | TGI (SR leukemia): > 100 µM | GI50 (SW-620 colon): > 100 µM | TGI (SW-620 colon): > 100 µM | GI50 (T-47D breast): < 10 nM | TGI (T-47D breast): > 100 µM | GI50 (TK-10 renal): > 100 µM | TGI (TK-10 renal): > 100 µM | GI50 (UACC-257 melanoma): > 100 µM | TGI (UACC-257 melanoma): > 100 µM | GI50 (UACC-62 melanoma): > 100 µM | TGI (UACC-62 melanoma): > 100 µM | GI50 (UO-31 renal): > 100 µM | TGI (UO-31 renal): > 100 µM
